Measurements reported in paper PMC9457168 (Proceedings of the National Academy of Sciences of the …, 2022).

Tests used:
[1] = system: LCMV; assay: microbe, parasite or virus in culture; type: cell-based, lymphocytic choriomeningitis virus; details: Mammarenavirus choriomeningitidis, KB, read-out: EC50 (nM) Mean (SD) LCMV
[2] = system: TPMV; assay: microbe, parasite or virus in culture; type: cell-based; details: Thottapalayam virus, HEK-293T, read-out: EC50 (nM) Mean (SD) TPMV
[3] = system: LCMV nucleoprotein; type: cell-based, lymphocytic choriomeningitis virus
[4] = system: LCMV Armstrong strain; type: cell-based, lymphocytic choriomeningitis virus
[5] = system: LCMV WE strain; details: mouse, in vivo

| SMILES | EC50 [1] | EC50 [2] | LCMV nucleoprotein production (immunofluorescence) [3] | infectious viral particles in culture supernatants, pretreatment [4] | viral propagation, posttreatment [4] | viral titers in supernatants, pretreatment [4] | survival rate [5] | inflammatory foci in liver (pathology) ([5]; 30 mg/kg) | serum IFN-γ levels ([5]; 30 mg/kg) | serum TNF-α levels ([5]; 30 mg/kg) | viral antigen in liver (IHC) ([5]; 30 mg/kg) |
| --- | --- | --- | --- | --- | --- | --- | --- | --- | --- | --- | --- |
| O=C1c2c(O)c(=O)ccn2N([C@@H]2c3ccccc3SCc3c2ccc(F)c3F)[C@@H]2COCCN12 [BXA, baloxavir acid] | > 1000 nM | > 1000 nM | – | – | – | – | – | – | – | – | – |
| NC(=O)c1ncn([C@@H]2O[C@H](CO)[C@@H](O)[C@H]2O)n1 [RBV, Ribavirin] | – | – | inhibited only at 1,000 nM | decreased infectious viral particles | significantly reduced viral propagation | increased | 20% | inflammatory foci were observed | equivalent level to the vehicle-treated mice | higher than that in compound B–treated mice | viral antigens were detected in hepatocytes |
